Assay [1] concerns mice in a model of Alzheimer's disease. Kind of assay: Contents of tryptophan, L-kynurenine and 5-hydroxytryptamine in serum by high performance liquid chromatography. The following applies: 8 weeks, x ± s, n = 10. It is filed as in vivo, Kunming mice. The procedure: 100 SPF-grade Kunming mice, each half male and female, weighed 20-22 g, were provided by the Jinan Pengyue Experimental Animal Breeding Co., Ltd with the animal certificate number: SCXK(Lu)20190003. The mice were bred to freely drink and eat in an SPF-grade animal breeding room with strictly controlled environmental conditions: the temperature of 20-26° C., the humidity of 40-70%, the light and dark cycle of 12 h:12 h, and a growing and breeding feed. The mice meeting the learning standard were screened, 10 of them were randomly selected as a normal group, 10 as a model group, and the others as experimental groups. Except that the mice in the normal group were intraperitoneally injected with the same amount of normal saline and intragastrically administrated with the same amount of double distilled water, the mice of the other groups were all intraperitoneally injected with D-galactose (500 mg/kg/D) (prepared with normal saline) and intragastrically administrated AlCl3 (20 mg/kg/D) (prepared with double distilled water). The mice in the experimental groups were intragastrically administrated once a day according to the grouping and administration dose and the mice in the normal group and the model group were intragastrically administrated with the same amount of purified water for 8 weeks successively. The mice in the experimental groups were divided into 8 groups of low- and high-dose anhydroicaritin groups, low- and high-dose compound I groups, and composition A, B, C, and D groups with 10 mice in each group. […] After the last administration, […] of blood was taken from each eyeball of each group of the mice subjected to the eight-arm maze test and stood overnight at 4° C. in a test tube, and a supernatant was taken the following day for later use. The contents of tryptophan, L-kynurenine, and 5-hydroxytryptamine in blood serum were detected by a high performance liquid chromatography.

Assay [2] shares this test system. Kind of assay: Eight-arm maze behavioral experiment in D-galactose/AlCl3 mouse model of Alzheimer's disease. The class given is in vivo, Kunming mice. The following applies: 8 weeks, x ± s, n = 10. The text has this: A food providing device is arranged at an end of each arm of an eight-arm maze. The spatial memory ability of an experimental animal may be reflected according to the strategy of analyzing feeding of an animal, namely the parameters of the times, time, correct times, wrong times, routes and the like of entering each arm. In contrast, the eight-arm maze is simple, convenient and feasible to operate, can distinguish short-term working memory from long-term reference memory, and is widely used for evaluating a learning and memory cognitive experiment. The main analysis indexes of the eight-arm maze are name, grouping, working memory error latency, reference memory error latency, total correct times, total arm entering times, working memory error times, reference memory error times, correct latency, correct rate, working memory error rate, reference memory error rate, correct times before first error, test time, a track graph and the like. […] 100 SPF-grade Kunming mice, each half male and female, weighed 20-22 g, were provided by the Jinan Pengyue Experimental Animal Breeding Co., Ltd with the animal certificate number: SCXK(Lu)20190003. The mice were bred to freely drink and eat in an SPF-grade animal breeding room with strictly controlled environmental conditions: the temperature of 20-26° C., the humidity of 40-70%, the light and dark cycle of 12 h:12 h, and a growing and breeding feed. All mice were first trained in an eight-arm maze which was a common model for evaluating the learning and memory ability of an animal. The animals were adaptively fed for 1 week, weighed, and fasted for 24 hours. Then after each day of training, the mice were restrictively given a normal diet to maintain the body weight of the mice between 80% and 85% of that of mice fed normally. On the second day, food particles (4-5 particles each arm with the diameter of about 3-4 mm) were sprayed in each arm and a center area of the maze. Then 4 animals were placed in the center of the maze simultaneously (doors to each arm were opened). The animals were freely fed and explored for 10 min. On the third day, the training of the second day was repeated. This process allowed the animals to become familiar with the maze environment without very strong stress. On the fourth day, the animals were trained individually: one food particle was placed in each arm near an outer food box and the animals ate freely. The animals were removed after the food particles were consumed or 10 min later. On the fifth day, the food was placed in the food box and the previous day of training was repeated 2 times a day. After the sixth day, 4 arms were randomly selected and one food particle was placed in each arm; each arm door was closed and the animals were placed in the center of the maze; and after 30s, the arm door was opened, the animals moved freely in the maze and took the food particle until the animals ate the food particles of all 4 arms. If the food particles were not eaten up after 10 min, the experiment was terminated. The animals were trained twice a day with the interval of 1 h or more. […] The mice meeting the learning standard were screened, 10 of them were randomly selected as a normal group, 10 as a model group, and the others as experimental groups. Except that the mice in the normal group were intraperitoneally injected with the same amount of normal saline and intragastrically administrated with the same amount of double distilled water, the mice of the other groups were all intraperitoneally injected with D-galactose (500 mg/kg/D) (prepared with normal saline) and intragastrically administrated AlCl3 (20 mg/kg/D) (prepared with double distilled water). The mice in the experimental groups were intragastrically administrated once a day according to the grouping and administration dose and the mice in the normal group and the model group were intragastrically administrated with the same amount of purified water for 8 weeks successively. […]

Assay [3] relates to microglia. To be noted: Alzheimer's disease inflammation model; cited from earlier work.
The subject of assay [4] is GSK-3. To be noted: cited from earlier work.
Where [5] appears, read: high-dose anhydroicaritin group, 21.2 mg/(kg·d) intragastric.
The mark [6] stands for this setting: low-dose anhydroicaritin group, 3.2 mg/(kg·d) intragastric.
The mark [7] stands for this setting: high-dose anhydroicaritin group, 21.2 mg/(kg·d) intragastric once a day.
Where [8] appears, read: low-dose anhydroicaritin group, 3.2 mg/(kg·d) intragastric once a day.
Setting [9] is: high-dose compound I group, 32 mg/(kg·d) intragastric.
Setting [10] is: low-dose compound I group, 0.6 mg/(kg·d) intragastric.
[11] abbreviates: high-dose compound I group, 32 mg/(kg·d) intragastric once a day.
[12] abbreviates: low-dose compound I group, 0.6 mg/(kg·d) intragastric once a day.

`COc1ccc(-c2oc3c(CC=C(C)C)c(O)cc(O)c3c(=O)c2O)cc1` [anhydroicaritin]: in assay [1] (setting [5]), the “5-hydroxytryptamine (μg/ml)” value is 1.30 ± 0.07^+ μg/ml, the “L-kynurenine (μg/ml)” value is on record as 0.33 ± 0.02^+ μg/ml and the “Tryptophan (μg/ml)” value is 17.90 ± 0.30^+ μg/ml. Moreover, in assay [1] (setting [6]), the “5-hydroxytryptamine (μg/ml)” value is 1.29 ± 0.05^+ μg/ml, the “L-kynurenine (μg/ml)” value is 0.33 ± 0.01^+ μg/ml and the “Tryptophan (μg/ml)” value is 17.79 ± 0.65^+ μg/ml. Also, in assay [2] (setting [7]), the “Average exploration time (s)” value is 189.81 ± 1.19^+ s, the “Reference memory error frequency” value is 0.20 ± 0.04^+ and the “Working memory error frequency” value is 0.44 ± 0.06^+. Moreover, in assay [2] (setting [8]), the “Average exploration time (s)” value was 190.17 ± 1.18^+ s, the “Reference memory error frequency” value is 0.21 ± 0.03^+ and the “Working memory error frequency” value was 0.45 ± 0.02^+.

Consider `N=C(N)NCCNc1nonc1/C(=N/O)Nc1ccc(F)c(Br)c1` [compound I], for which, in assay [1] (setting [9]), the “5-hydroxytryptamine (μg/ml)” value is 1.28 ± 0.05^+ μg/ml, the “L-kynurenine (μg/ml)” value is recorded as 0.33 ± 0.01^+ μg/ml and the “Tryptophan (μg/ml)” value is reported as 18.08 ± 0.02^+ μg/ml. In addition, in assay [1] (setting [10]), the “5-hydroxytryptamine (μg/ml)” value is 1.29 ± 0.05^+ μg/ml, the “L-kynurenine (μg/ml)” value is on record as 0.35 ± 0.03^+ μg/ml and the “Tryptophan (μg/ml)” value is 17.92 ± 0.95^+ μg/ml. In assay [2] (setting [11]), the “Average exploration time (s)” value is given as 189.95 ± 1.04^+ s, the “Reference memory error frequency” value is 0.21 ± 0.04^+ and the “Working memory error frequency” value was 0.44 ± 0.05^+. Further, in assay [2] (setting [12]), the “Average exploration time (s)” value was 190.20 ± 1.09^+ s, the “Reference memory error frequency” value was 0.23 ± 0.05^+ and the “Working memory error frequency” value was 0.52 ± 0.03^++.

On to `COc1ccc(-c2oc3c(CC=C(C)C)c(O)cc(O)c3c(=O)c2O)cc1` [icaritin], for which, in assay [3], the “activation of microglia induced by LPS” value was “inhibit excessive activation of microglia induced by LPS”; the “learning and memory ability of mice” value was “improve the learning and memory ability of mice”. Also, the GSK-3 activity entry in assay [4] is on record as “inhibiting GSK-3 activity”.

(Values after patent publication US20240382466A1, “PHARMACEUTICAL COMPOSITION FOR PREVENTING OR TREATING ALZHEIMER’S DISEASE” (priority 2021, published 2024).)
